# Results taken from patent publication US6514709B1, “High throughput screening by measurement of intracellular calcium levels” (Merck & Co., Inc., priority 2000, dated 2003).
# Tests used:
# Type in all cases: cell-based
# [1] = biological target: T1, human growth hormone secretagogue receptor type 1a (hGHSR1A) (Homo sapiens, UniProt Q92847); test: Manual luminescence measurement in hGHSR1a cells, read 2 minutes after agonist; settings: 2 minutes after 100 nM ghrelin, with BAPTA
# T1 construct: expressed in transfected cells
# Method: Parental HEK293 cell lines expressing apoaequorin (293AEQ17 cells) were used to develop stable clonal cell lines expressing the human growth hormone secretagogue receptor type 1a (hGHSR1A).
# Cells were charged with the aequorin substrate, coelenterazine h (MOLECULAR PROBES, #C-6780), by removing the growth media and incubating the cells with 75 μl of charge buffer (DMEM GIBCOBRL #12320-032; 0.1% FBS GEMINI BIO-PRODUCTS, Inc. #100-107;5 μM coelenterazine h; 30 μM reduced glutathione) for 2 hours at 37° C., 10% CO^2. […] The cells were then washed and loaded with 100 μl of enriched-PBS with or without the indicated antagonist. […] The WALLAC MICROBETA JET was used to measure 10 sec of luminescence after a delay of 2 minutes.
# J. Med Chem. 43 4370-4376). […] After a lapse of two minutes, the plates were read using the WALLAC MICROBETA JET luminometer. […] These complex dose-response curves were observed both in the presence and absence of BAPTA. Yet overall, the addition of BAPTA increased the luminescence such that a 6-fold signal over background could be measured 2 minutes after stimulation with agonist.
# [2] = biological target: T2, rat VR1 capsaicin receptor (Rattus norvegicus, UniProt O35433); test: Fluo-3 fluorescence calcium response in VR1 cells (VIPR)
# T2 construct: expressed in transfected cells
# Method: Parental HEK293 cell lines expressing apoaequorin (293AEQ17 cells) were used to develop stable clonal cell lines expressing the rat VR1 capsaicin receptor (Caterina, M. J., Schumacher, M. A., Tominaga, M., Rosen, T. A., Levine, J. D., and Julius, D. (1997) The capsaicin receptor: a heat-activated ion channel in the pain pathway. Nature 389, 816-824). The VR1 293AEQ17 were maintained on growth media containing DMEM (GIBCOBRL, high glucose, with L-glutamine, with 110 mg/L sodium pyruvate, with pyridoxine HCl), 25 mM HEPES (GIBCOBRL, 1M stock), 0.5 mg/mL geneticin (GIBCOBRL, 50 mg/mL stock), 1 μg/mL puromycin (CLONTECH), and 10% fetal bovine serum (GEMINI BIO-PRODUCTS, heat inactivated) at 37° C., 10% CO^2.
# Cells were grown to 80-95% confluence in tissue culture flasks (T-225, CORNING) and harvested by trypsinization (Trypsin/EDTA, GIBCOBRL). Cells were dispensed (about 1×10^5 cells/0.2 ml/well) into 96-well black clear-bottom BIOCOAT poly-D-lysine plates (BECTON DICKENSON, Bedford, Mass.) in growth media and incubated overnight at 37° C. in a humidified incubator at 10% CO^2. Cells were washed once with 200 μls of enriched PBS (Dulbecco's PBS (GIBCOBRL #14040-117), 10 mM HEPES, 2 g/L glucose; pH 7.2) and then incubated with 100 μl of 5 μM fluo-3-AM (MOLECULAR PROBES #F1241) with or without of 1,2-bis(o-aminophenoxy)ethane-N,N,N′,N′-tetraacetic acid tetra(acetoxymethyl) ester (BAPTA-AM, MOLECULAR PROBES #B 1205) in enriched PBS containing 0.02% pluronic F-127 (MOLECULAR PROBES #P-3000) for 30-70 minutes. Wells were washed two times with 100 μl of enriched-PBS, and then 100 μl enriched-PBS with or without antagonist was added for 15-30 minutes prior to assay on the AURORA fluorescence plate reader VIPR (ex. 480 nm, em. 535 nm). […] The calcium response was initiated by addition of 100 μl of the indicated concentration of capsaicin (SIGMA #M2028). The VIPR instrument was used to add agonist (in 100 μl enriched-PBS) after recording a 10 sec. baseline and the fluorescence was measured for up to 300 sec.
# Changes in intracellular calcium were measured using the fluo-3 dye and detecting the kinetics of the response after addition of the VR1 agonist, capsaicin (0.5 uM) to cells expressing VR1 using a VIPR fluorescence plate reader (FIGS. 5 & 6A).
# [3] = biological target: T2, rat VR1 capsaicin receptor; test: Manual luminescence measurement in VR1 cells, read 2 minutes after agonist
# Method: Parental HEK293 cell lines expressing apoaequorin (293AEQ17 cells) were used to develop stable clonal cell lines expressing the rat VR1 capsaicin receptor.
# Cells were grown to 80-95% confluence in tissue culture flasks (T-225, Corning) and harvested by trypsinization (Trypsin/EDTA, GIBCOBRL). Cells were dispensed (about 1×10^5 cells/0.2 ml/well) into 96-well white clear-bottom BIOCOAT poly-D-lysine plates (BECTON DICKENSON, Bedford, Mass.) in growth media and incubated overnight at 37° C. in a humidified incubator at 10% CO^2.
# [4] = biological target: T2, rat VR1 capsaicin receptor; test: Aequorin luminescence in VR1 cells (WALLAC MICROBETA JET); settings: no BAPTA
# Method: Parental HEK293 cell lines expressing apoaequorin (293AEQ17 cells) were used to develop stable clonal cell lines expressing the rat VR1 capsaicin receptor. The VR1 293AEQ17 were maintained on growth media containing DMEM (GIBCOBRL, high glucose, with L-glutamine, with 110 mg/L sodium pyruvate, with pyridoxine HCl), 25 mM HEPES (GIBCOBRL, 1M stock), 0.5 mg/mL geneticin (GIBCOBRL, 50 mg/mL stock), 1 μg/mL puromycin (CLONTECH), and 10% fetal bovine serum (GEMINI BIO-PRODUCTS, heat inactivated) at 37° C., 10% CO^2.
# Cells were grown to 80-95% confluence in tissue culture flasks (T-225, Corning) and harvested by trypsinization (Trypsin/EDTA, GIBCOBRL). Cells were dispensed (about 1×10^5 cells/0.2 ml/well) into 96-well white clear-bottom BIOCOAT poly-D-lysine plates (BECTON DICKENSON, Bedford, Mass.) in growth media and incubated overnight at 37° C. in a humidified incubator at 10% CO^2. Cells were charged with the aequorin substrate, coelenterazine h (MOLECULAR PROBES, #C-6780), by removing the growth media and incubating the cells with 75 μl of charge buffer (DMEM GIBCOBRL #12320-032; 0.1% FBS GEMINI BIO-PRODUCTS, Inc. #100-107;5 μM coelenterazine h; 30 μM reduced glutathione) for 2 hours at 37° C., 10% CO^2. The charge buffer was then removed and the cells were washed twice with 100 μl of enriched-PBS (pH 7.2) and then incubated with 100 μl of enriched-PBS supplemented with 0-30 μM BAPTA-AM for 30-120 min at 37° C., 10% CO^2. The cells were then washed and loaded with […] of enriched-PBS with or without the indicated antagonist. The calcium response was initiated by addition of 100 μl of the indicated concentration of capsaicin (SIGMA #M2028) to the wells by a WALLAC MICROBETA JET. In order to obtain more consistent kinetics, the Jet was set to simultaneously read only six wells per determination.
# For these experiments, the kinetics of the flash luminescence were followed using a WALLAC MICROBETA JET luminometer that injects reagent and records light emission from six wells of a 96-well plate simultaneously.
# [5] = 0.5 uM capsaicin, absence of BAPTA
# T2 sequence (O35433 whole entry): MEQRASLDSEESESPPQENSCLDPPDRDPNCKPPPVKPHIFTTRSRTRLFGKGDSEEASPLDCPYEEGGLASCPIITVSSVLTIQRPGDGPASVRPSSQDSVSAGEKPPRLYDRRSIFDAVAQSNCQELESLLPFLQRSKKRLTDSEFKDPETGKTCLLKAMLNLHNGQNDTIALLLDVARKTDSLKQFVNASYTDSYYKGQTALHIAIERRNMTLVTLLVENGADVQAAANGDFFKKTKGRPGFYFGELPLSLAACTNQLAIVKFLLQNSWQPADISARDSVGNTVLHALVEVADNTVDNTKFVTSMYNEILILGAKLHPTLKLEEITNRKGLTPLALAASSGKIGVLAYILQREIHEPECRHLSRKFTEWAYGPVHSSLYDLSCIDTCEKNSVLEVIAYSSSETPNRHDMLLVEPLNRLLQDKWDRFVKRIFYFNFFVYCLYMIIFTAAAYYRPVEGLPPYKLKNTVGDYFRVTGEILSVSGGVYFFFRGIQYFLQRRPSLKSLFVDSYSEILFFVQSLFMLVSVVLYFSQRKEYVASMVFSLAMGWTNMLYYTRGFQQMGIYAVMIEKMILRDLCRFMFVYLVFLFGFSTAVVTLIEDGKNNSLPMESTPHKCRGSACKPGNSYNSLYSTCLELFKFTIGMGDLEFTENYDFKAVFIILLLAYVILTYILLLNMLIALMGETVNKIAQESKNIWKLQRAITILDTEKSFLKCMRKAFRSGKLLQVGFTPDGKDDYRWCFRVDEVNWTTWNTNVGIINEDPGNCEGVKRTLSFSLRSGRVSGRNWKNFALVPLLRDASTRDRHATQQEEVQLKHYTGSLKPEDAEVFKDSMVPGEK
# T1 sequence (Q92847 whole entry): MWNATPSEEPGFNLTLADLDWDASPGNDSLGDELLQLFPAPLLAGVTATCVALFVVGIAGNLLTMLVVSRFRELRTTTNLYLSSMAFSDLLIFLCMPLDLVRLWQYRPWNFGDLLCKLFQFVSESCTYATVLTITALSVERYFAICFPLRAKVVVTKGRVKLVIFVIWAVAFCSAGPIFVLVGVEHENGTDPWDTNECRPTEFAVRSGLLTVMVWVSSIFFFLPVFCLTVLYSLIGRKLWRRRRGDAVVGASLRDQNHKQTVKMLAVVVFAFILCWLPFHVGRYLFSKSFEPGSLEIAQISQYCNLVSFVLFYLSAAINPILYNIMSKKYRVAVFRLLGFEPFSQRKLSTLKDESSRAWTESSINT
smiles,measurement,setting,value
O=C(O)CN(CC(=O)O)c1ccccc1OCCOc1ccccc1N(CC(=O)O)CC(=O)O [BAPTA],signal over background,[1],6 fold
same,effect on peak signal,"[2]; 3 μM BAPTA, 0.1 μM capsaicin",decreased the peak signal
same,signal over background,"[3]; 2 minutes after 0.5 uM capsaicin, with BAPTA",4 fold
Oc1cc2c(cc1O)CN(C(=S)NCCc1ccc(Cl)cc1)CCC2 [capsazepine],block of capsaicin response,"[2]; 20 μM capsazepine, 0.5 uM capsaicin",completely blocked
same,block of luminescence signal,"[3]; higher concentrations of antagonist, 0.5 uM capsaicin, with and without BAPTA",completely blocked
COc1cc(CNC(=O)CCCC/C=C/C(C)C)ccc1O [capsaicin],time for luminescence signal to be largely complete,[4]; 50 nM capsaicin,≤ 30 s
same,time to peak luminescence,[4]; 50 nM capsaicin,about 10 sec
same,time to peak response,[4]; 0.5 μM capsaicin,about 5 sec
same,time to decay to 50%,[2]; [5],about 150 sec
same,time to peak fluorescence response,[2]; [5],about 20 sec
